Results published in PubChem BioAssay AID248 (DTP/NCI, 2004).
Toxic doses and inconclusive results are not listed. No stated cut-off is given here; in the data, active means T/C of 150% or more; inactive means T/C below 125%.

Test system: L1210 leukemia ip in BDF1 mice, survival T/C
Test: NCI In Vivo Anticancer Drug Screen. Data for tumor model L1210 Leukemia (intraperitoneal) in B6D2F1 (BDF1) mice
Settings: endpoint: mean survival time, higher = longer survival
Procedure, shortened: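 Transplanted-tumor mice were given test agent; controls received vehicle only. Survival readings from the two groups were divided (treated over control).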

[1] = dose: 100.0 mg/kg/injection, schedule: Q01DX009 (ip), vehicle: Klucel (hydroxypropylcellulose) (HPC)
[2] = dose: 200.0 mg/kg/injection, schedule: Q01DX009 (ip), vehicle: Klucel (hydroxypropylcellulose) (HPC)
[3] = dose: 400.0 mg/kg/injection, schedule: Q01DX009 (ip), vehicle: Klucel (hydroxypropylcellulose) (HPC)
[4] = dose: 100.0 mg/kg/injection, schedule: Q01DX009 (ip), vehicle: saline with Tween-80
[5] = dose: 200.0 mg/kg/injection, schedule: Q01DX009 (ip), vehicle: saline with Tween-80
[6] = dose: 400.0 mg/kg/injection, schedule: Q01DX009 (ip), vehicle: saline with Tween-80
[7] = dose: 100.0 mg/kg/injection, schedule: Q01DX001 (ip), vehicle: saline
[8] = dose: 200.0 mg/kg/injection, schedule: Q01DX001 (ip), vehicle: saline
[9] = dose: 400.0 mg/kg/injection, schedule: Q01DX001 (ip), vehicle: saline

Measured: T/C

Cc1ccc(CNC(=O)NC(C)(C)C)cc1
inactive: [1] 93 % of control | [2] 101 % of control | [3] 90 % of control

CN(C)C(C)(C)CCCNc1ccnc2cc(Cl)ccc12
inactive: dose: 75.0 mg/kg/injection, schedule: Q01DX001 (ip), vehicle: carboxymethylcellulose (CMC) 100 % of control | dose: 150.0 mg/kg/injection, schedule: Q01DX001 (ip), vehicle: carboxymethylcellulose (CMC) 100 % of control

CC(C)COC(=O)c1ccc(NC(=O)Nc2ccccc2)cc1
inactive: [4] 93 % of control | dose: 100.0 mg/kg/injection, schedule: Q04DX003 (ip), vehicle: saline with Tween-80 92 % of control | [5] 88 % of control | dose: 200.0 mg/kg/injection, schedule: Q04DX003 (ip), vehicle: saline with Tween-80 88 % of control | [6] 97 % of control | dose: 400.0 mg/kg/injection, schedule: Q04DX003 (ip), vehicle: saline with Tween-80 87 % of control

Cc1ccc(NC(=O)OCCN(CCOC(=O)Nc2ccc(C)cc2)Cc2ccccc2)cc1
inactive: [7] 94 % of control | [8] 91 % of control | [9] 94 % of control

O=S(=O)(Nc1ccc(CCc2ccc(NS(=O)(=O)c3ccccc3)cc2)cc1)c1ccccc1
inactive: [4] 95 % of control | [5] 98 % of control | [6] 98 % of control

CCN(CC)C(=O)O/N=C/c1ccccc1
inactive: [7] 94 % of control | [8] 91 % of control | [9] 96 % of control

COC(=O)CC(=O)c1ccc(S(=O)(=O)F)cc1
inactive: [1] 104 % of control | dose: 100.0 mg/kg/injection, schedule: Q04DX003 (ip), vehicle: Klucel (hydroxypropylcellulose) (HPC) 98 % of control | [2] 97 % of control | dose: 200.0 mg/kg/injection, schedule: Q04DX003 (ip), vehicle: Klucel (hydroxypropylcellulose) (HPC) 96 % of control | [3] 101 % of control | dose: 400.0 mg/kg/injection, schedule: Q04DX003 (ip), vehicle: Klucel (hydroxypropylcellulose) (HPC) 100 % of control

C(CCCCCC1CCCC2CCCCC12)CCCCC1CCCC2CCCCC12 (configuration not stated)
inactive: dose: 100.0 mg/kg/injection, schedule: Q01DX001 (ip), vehicle: saline with Tween-80 98 % of control | dose: 200.0 mg/kg/injection, schedule: Q01DX001 (ip), vehicle: saline with Tween-80 98 % of control | dose: 400.0 mg/kg/injection, schedule: Q01DX001 (ip), vehicle: saline with Tween-80 98 % of control

c1ccc2cc3nc4c(nc3cc2c1)[nH]c1ccccc14
inactive: dose: 100.0 mg/kg/injection, schedule: Q01DX001 (ip), vehicle: other 87 % of control | dose: 200.0 mg/kg/injection, schedule: Q01DX001 (ip), vehicle: other 95 % of control | dose: 400.0 mg/kg/injection, schedule: Q01DX001 (ip), vehicle: other 95 % of control
